The target of this assay is T1, BMPR1A (ALK3) (Homo sapiens, UniProt P36894).
T1 construct: purchased Thermo Fisher Scientific (Life Technologies) SelectScreen
The experiment in a line: SelectScreen LanthaScreen. Conditions: read-out: % displacement. Type of assay: binding. The procedure, abridged: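 SelectScreen broad panel; activity (Z'LYTE, Adapta) plus binding formats. ATP: Km app for CSF1R Z'LYTE; 10 for CAMK1 Adapta. Readout = % per kinase.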

Molecules are shown by their SMILES.

T1 sequence (P36894 24-532): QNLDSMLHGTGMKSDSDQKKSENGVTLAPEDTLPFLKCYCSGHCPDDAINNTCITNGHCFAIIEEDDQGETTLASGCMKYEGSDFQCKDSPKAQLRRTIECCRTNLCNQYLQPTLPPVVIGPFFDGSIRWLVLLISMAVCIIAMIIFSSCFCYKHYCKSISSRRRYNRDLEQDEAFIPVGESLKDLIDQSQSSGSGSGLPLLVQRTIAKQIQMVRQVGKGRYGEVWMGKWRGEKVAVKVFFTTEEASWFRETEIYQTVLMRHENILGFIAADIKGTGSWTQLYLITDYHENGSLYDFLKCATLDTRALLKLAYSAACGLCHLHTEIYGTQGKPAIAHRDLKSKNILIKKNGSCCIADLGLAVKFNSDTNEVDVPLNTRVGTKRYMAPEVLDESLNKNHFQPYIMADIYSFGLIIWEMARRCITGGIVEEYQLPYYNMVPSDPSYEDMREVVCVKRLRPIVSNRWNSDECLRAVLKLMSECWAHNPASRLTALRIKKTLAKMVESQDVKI

In the case of `CN(C(=O)CN1CCOCC1)c1ccc2sc3c(-c4cccc5c(=O)cc(N6CC7CCC(C6)O7)oc45)cccc3c2c1` [NU5455], the inhibition at 1 µM was -4.4%.

Values taken from publication PMC6934184, “Selective DNA-PKcs inhibition extends the therapeutic index of localized radiotherapy and chemotherapy” (The Journal of Clinical Investigation, 2019).
